According to patent publication US20030229132A1, “Small molecule modulators of apoptosis” (priority 2002, published 2003):

Experiments:
[1] = target: T1, Apaf-1 (Homo sapiens, UniProt O14727); assay: Apaf-1 oligomerization by gel filtration; assay type: biochemical; conditions: for increase of oligomerization of Apaf-1 over the vehicle alone: 20 μM compound, 0.15 μM cyto c; for Apaf-1 complex assembly in the absence of cyto c: no cyto c
T1 construct: resulting in full-length Apaf-XL with a C-terminal six histidine tag; six histidine tag (His6) (C); made in house; host or cells: insect cells (Hi-5), baculovirus vector pFastbacHT / pFastbacH
T1 sequence (O14727 1-1248): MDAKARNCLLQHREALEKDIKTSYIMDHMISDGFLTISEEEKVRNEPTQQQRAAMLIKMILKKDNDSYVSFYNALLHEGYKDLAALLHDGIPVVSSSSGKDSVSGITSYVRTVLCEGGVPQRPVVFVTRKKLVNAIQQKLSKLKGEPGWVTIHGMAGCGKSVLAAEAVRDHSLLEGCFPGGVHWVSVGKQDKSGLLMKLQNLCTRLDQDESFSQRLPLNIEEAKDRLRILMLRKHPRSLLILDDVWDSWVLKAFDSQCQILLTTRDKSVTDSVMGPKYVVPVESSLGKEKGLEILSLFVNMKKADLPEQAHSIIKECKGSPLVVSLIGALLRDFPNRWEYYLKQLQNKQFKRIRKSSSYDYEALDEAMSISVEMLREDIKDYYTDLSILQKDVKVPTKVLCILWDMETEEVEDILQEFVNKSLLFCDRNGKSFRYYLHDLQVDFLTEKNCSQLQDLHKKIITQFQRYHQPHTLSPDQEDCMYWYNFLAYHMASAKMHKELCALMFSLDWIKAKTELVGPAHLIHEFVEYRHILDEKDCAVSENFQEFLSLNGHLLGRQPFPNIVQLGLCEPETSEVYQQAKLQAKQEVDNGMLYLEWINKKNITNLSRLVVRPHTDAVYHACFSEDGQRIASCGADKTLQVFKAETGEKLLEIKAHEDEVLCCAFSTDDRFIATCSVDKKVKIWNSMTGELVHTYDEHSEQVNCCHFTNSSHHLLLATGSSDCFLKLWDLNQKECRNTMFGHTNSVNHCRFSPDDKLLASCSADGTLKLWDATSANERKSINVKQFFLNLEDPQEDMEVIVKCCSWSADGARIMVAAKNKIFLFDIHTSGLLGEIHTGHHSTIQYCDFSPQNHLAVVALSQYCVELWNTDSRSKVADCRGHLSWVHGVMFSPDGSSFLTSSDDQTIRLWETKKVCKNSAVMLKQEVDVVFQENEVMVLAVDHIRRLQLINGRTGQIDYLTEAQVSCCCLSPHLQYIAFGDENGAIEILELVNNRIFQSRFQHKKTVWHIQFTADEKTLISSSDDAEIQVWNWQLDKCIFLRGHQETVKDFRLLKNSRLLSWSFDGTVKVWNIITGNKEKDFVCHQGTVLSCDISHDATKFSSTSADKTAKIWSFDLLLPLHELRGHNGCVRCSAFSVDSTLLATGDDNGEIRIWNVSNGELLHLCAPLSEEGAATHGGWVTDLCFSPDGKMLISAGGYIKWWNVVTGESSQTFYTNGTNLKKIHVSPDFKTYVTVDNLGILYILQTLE
Experimental: FIG. 7 depicts activity of compounds 1-5 at low cyto c concentrations in a purified system. Apaf-1 was incubated with vehicle, cyto c, or cyto c plus 20 μM compound as indicated, and then separated on a Superose 6 gel filtration column. Individual fractions were assayed for relative Apaf-1 concentrations by capture ELISA (bar graph), or the ability to activate procaspase-3 processing in lysates (line graph). The percent of Apaf-1 in apoptosomes was determined by dividing the amount of Apaf-1 in fractions 8-11 by the total amount of Apaf-1. The extent of caspase-3 activation (given in arbitrary units) corresponds to the area under the curve for fractions 8-11 in each panel. Black bars represent fractions used for calculations.
As the compounds appeared to be acting prior to caspase activation, their effect on the oligomerization of Apaf-1 was assessed (K. Cain, D. G. Brown, C. Langlais, G. M. Cohen, J Biol Chem 274, 22686-92 (1999); K. Cain et al., J Biol Chem 275, 6067-70 (2000)). By gel filtration, Apaf-1 normally runs as a monomer of ˜140 kD (FIG. 7) (see, A. Saleh, S. M. Srinivasula, S. Acharya, R. Fishel, E. S. Alnemri, J Biol Chem 274, 17941-5 (1999)). Incubation of Apaf-1 with 5 μM cyto c induces over 90% of the Apaf-1 to form large complexes of ˜700 kD, whereas incubation with 0.15 μM cyto c concentration allowed only 22% of the Apaf-1 to assemble into complexes. However, the addition of 20 μM compound 2 or 5 at the lower cyto c concentration caused the formation of two higher molecular weight complexes: a major peak that runs at the same retention time as the complex seen at 5 μM cyto c (˜700 kD), and a minor peak that elutes in the void volume. […] To determine if the Apaf-1 complexes induced by the compounds at the lower cyto c concentration are competent for caspase activation, procaspase-9, procaspase-3, and dATP were added to fractions from the gel filtration column and assayed for caspase-3 activation. Fractions from samples that had been incubated with 5 μM cyto c strongly activated caspase-3 processing (FIG. 7, panel ii, line graph), with the maximal caspase activation corresponding to the fractions that contained the apoptosome complex. On the other hand, no fractions form the sample without cyto c activated capsase-3 processing (panel i). There was a small but measurable amount of capsase-3 activation when the cyto c concentration was reduced to 0.15 μM (panel iii). However, the extent of caspase-3 activation at the reduced level of cyto c increased approximately 4-fold when either compound 2 or 5 was added to the reaction (from 0.36 arbitrary units for the vehicle alone to 1.57 and 1.4 for compounds 2 and 5, respectively, panels iv and vi). […] Again, there was no increase in capsapse-3 activation when compounds were incubated with Apaf-1 in the absence of cyto c.
Bovine heart cyto c is purchased from Sigma and used without further purification. The XL form of Apaf-1 is cloned into pFastbacH and expressed in insect cells, resulting in full-length Apaf-XL with a C-terminal six histidine tag. Purification of Apaf-1 is according to A. Saleh, et al., J Biol Chem 274, 17941-45 (1999). 100 μL of 2 μM Apaf-1 is combined with 300 μM dATP in a mixture, with or without the further addition of 0.15 μM cyto c or compounds and heated for 30 min at 37° C.
The mixtures are next injected into a Superose 6 gel filtration column and separated at 0.4 mL/min in PBS; 0.8 mL fractions are collected 10 min after injection. […]

[2] = system: Jurkat cells; assay: DNA fragmentation analysis in Jurkat cells; assay type: cell-based, human; conditions: 50 μM compound or 1 μM staurosporin, 8 hr

SMILES: O=C1C(=O)N(Cc2ccc(Cl)c(Cl)c2)c2ccccc21 [Compound 2]
- increase of oligomerization of Apaf-1 over the vehicle alone [1]: about 1.5 fold
- Apaf-1 complex assembly in the absence of cyto c [1]: no complex assembly
- DNA fragmentation [2]: induced DNA fragmentation

SMILES: O=C(NCc1ccc(Cl)c(Cl)c1)OC1CCc2ccccc21 (centres unmarked) [Compound 4]
- increase of oligomerization of Apaf-1 over the vehicle alone [1]: no effect
- DNA fragmentation [2]: less pronounced effect

SMILES: O=C(NCc1ccc(Cl)c(Cl)c1)OC1CCc2ccccc21 (centres unmarked) [Compound 5]
- increase of oligomerization of Apaf-1 over the vehicle alone [1]: about 1.5 fold
- Apaf-1 complex assembly in the absence of cyto c [1]: no complex assembly
- DNA fragmentation [2]: induced DNA fragmentation
